Values quoted from earlier work, collected in patent US20260272607A1, “METHOD OF MARKING LESIONS” (Cook Medical Technologies LLC, priority 2023, published 2026).

System: lung nodules
Conditions: ICG dye marking without use of a coil; prior experience

Structure (SMILES): CC1(C)C(/C=C/C=C/C=C/C=C2\N(CCCCS(=O)(=O)O)c3ccc4ccccc4c3C2(C)C)=[N+](CCCCS(=O)(=O)[O-])c2ccc3ccccc3c21 [ICG dye, indocyanine green]
- persistence of dye effect after ICG dye marking without a coil: fade away over several hours
